# Measurements taken from patent publication US9326506B2, “Preparation method, agricultural composition and applications of natural brassinolide analogs” (CHENGDU NEWSUN CROPSCIENCE CO., LTD, priority 2012, dated 2016).
# System: rice
# Experiment: Low temperature assay on rice seedlings
# Type: in vivo
# How it was run: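 Nine-day-old etiolated rice seedlings (grown on water at 30 °C±2 °C, dark) immersed in brassinolide analogues at 1–0.0001 mg/L or pure water, held at 1–5 °C for 24 hr. Plant height, leaf area, root weight read at 3, 6, 9, 12 days; leaf and tiller number at 12 days.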
compound,measurement,setting,value
CC(C)(O)CC[C@@H](O)[C@](C)(O)[C@H]1CC[C@@]2(O)[C@@H]3CC(=O)[C@@H]4C[C@@H](O)[C@@H](O)C[C@]4(C)[C@H]3CC[C@]12C [BR6],Area of leaf,"0.0001 mg/l, 1 °C, 3 days",10 cm^2
same,Height,"0.0001 mg/l, 1 °C, 3 days",7.1 cm
same,Weight of root,"0.0001 mg/l, 1 °C, 3 days",2.8 g
same,Area of leaf,"0.0001 mg/l, 1 °C, 6 days",11.2 cm^2
same,Height,"0.0001 mg/l, 1 °C, 6 days",7.2 cm
same,Weight of root,"0.0001 mg/l, 1 °C, 6 days",3.1 g
same,Area of leaf,"0.0001 mg/l, 1 °C, 9 days",12.4 cm^2
same,Height,"0.0001 mg/l, 1 °C, 9 days",7.4 cm
same,Weight of root,"0.0001 mg/l, 1 °C, 9 days",3.5 g
same,Area of leaf,"0.0001 mg/l, 1 °C, 12 days",13 cm^2
same,Height,"0.0001 mg/l, 1 °C, 12 days",7.4 cm
same,Number of leaf,"0.0001 mg/l, 1 °C, 12 days",3
same,Number of tiller,"0.0001 mg/l, 1 °C, 12 days",3
same,Weight of root,"0.0001 mg/l, 1 °C, 12 days",3.9 g
same,Area of leaf,"0.0001 mg/l, 2 °C, 3 days",10.2 cm^2
same,Height,"0.0001 mg/l, 2 °C, 3 days",7.1 cm
same,Weight of root,"0.0001 mg/l, 2 °C, 3 days",2.8 g
same,Area of leaf,"0.0001 mg/l, 2 °C, 6 days",11.7 cm^2
same,Height,"0.0001 mg/l, 2 °C, 6 days",7.2 cm
same,Weight of root,"0.0001 mg/l, 2 °C, 6 days",3.0 g
same,Area of leaf,"0.0001 mg/l, 2 °C, 9 days",12.6 cm^2
same,Height,"0.0001 mg/l, 2 °C, 9 days",7.3 cm
same,Weight of root,"0.0001 mg/l, 2 °C, 9 days",3.2 g
same,Area of leaf,"0.0001 mg/l, 2 °C, 12 days",13 cm^2
same,Height,"0.0001 mg/l, 2 °C, 12 days",7.5 cm
same,Number of leaf,"0.0001 mg/l, 2 °C, 12 days",3
same,Number of tiller,"0.0001 mg/l, 2 °C, 12 days",3
same,Weight of root,"0.0001 mg/l, 2 °C, 12 days",3.9 g
same,Area of leaf,"0.0001 mg/l, 3 °C, 3 days",10.4 cm^2
same,Height,"0.0001 mg/l, 3 °C, 3 days",7.1 cm
same,Weight of root,"0.0001 mg/l, 3 °C, 3 days",2.5 g
same,Area of leaf,"0.0001 mg/l, 3 °C, 6 days",12 cm^2
same,Height,"0.0001 mg/l, 3 °C, 6 days",7.2 cm
same,Weight of root,"0.0001 mg/l, 3 °C, 6 days",2.6 g
same,Area of leaf,"0.0001 mg/l, 3 °C, 9 days",12.6 cm^2
same,Height,"0.0001 mg/l, 3 °C, 9 days",7.5 cm
same,Weight of root,"0.0001 mg/l, 3 °C, 9 days",2.9 g
same,Area of leaf,"0.0001 mg/l, 3 °C, 12 days",13.2 cm^2
same,Height,"0.0001 mg/l, 3 °C, 12 days",7.6 cm
same,Number of leaf,"0.0001 mg/l, 3 °C, 12 days",3
same,Number of tiller,"0.0001 mg/l, 3 °C, 12 days",2
same,Weight of root,"0.0001 mg/l, 3 °C, 12 days",2.9 g
same,Area of leaf,"0.0001 mg/l, 4 °C, 3 days",10.6 cm^2
same,Height,"0.0001 mg/l, 4 °C, 3 days",7.1 cm
same,Weight of root,"0.0001 mg/l, 4 °C, 3 days",2.5 g
same,Area of leaf,"0.0001 mg/l, 4 °C, 6 days",12.2 cm^2
same,Height,"0.0001 mg/l, 4 °C, 6 days",7.3 cm
same,Weight of root,"0.0001 mg/l, 4 °C, 6 days",2.6 g
same,Area of leaf,"0.0001 mg/l, 4 °C, 9 days",13 cm^2
same,Height,"0.0001 mg/l, 4 °C, 9 days",7.5 cm
same,Weight of root,"0.0001 mg/l, 4 °C, 9 days",2.8 g
same,Area of leaf,"0.0001 mg/l, 4 °C, 12 days",13.4 cm^2
same,Height,"0.0001 mg/l, 4 °C, 12 days",7.7 cm
same,Number of leaf,"0.0001 mg/l, 4 °C, 12 days",3
same,Number of tiller,"0.0001 mg/l, 4 °C, 12 days",2
same,Weight of root,"0.0001 mg/l, 4 °C, 12 days",2.9 g
same,Area of leaf,"0.0001 mg/l, 5 °C, 3 days",10.6 cm^2
same,Height,"0.0001 mg/l, 5 °C, 3 days",7.2 cm
same,Weight of root,"0.0001 mg/l, 5 °C, 3 days",2.6 g
same,Area of leaf,"0.0001 mg/l, 5 °C, 6 days",12.8 cm^2
same,Height,"0.0001 mg/l, 5 °C, 6 days",7.5 cm
same,Weight of root,"0.0001 mg/l, 5 °C, 6 days",2.7 g
same,Area of leaf,"0.0001 mg/l, 5 °C, 9 days",13.6 cm^2
same,Height,"0.0001 mg/l, 5 °C, 9 days",7.5 cm
same,Weight of root,"0.0001 mg/l, 5 °C, 9 days",2.9 g
same,Area of leaf,"0.0001 mg/l, 5 °C, 12 days",14 cm^2
same,Height,"0.0001 mg/l, 5 °C, 12 days",7.8 cm
same,Number of leaf,"0.0001 mg/l, 5 °C, 12 days",3
same,Number of tiller,"0.0001 mg/l, 5 °C, 12 days",2
same,Weight of root,"0.0001 mg/l, 5 °C, 12 days",3.0 g
same,Area of leaf,"0.001 mg/l, 1 °C, 3 days",10 cm^2
same,Height,"0.001 mg/l, 1 °C, 3 days",6.9 cm
same,Weight of root,"0.001 mg/l, 1 °C, 3 days",2.8 g
same,Area of leaf,"0.001 mg/l, 1 °C, 6 days",11.3 cm^2
same,Height,"0.001 mg/l, 1 °C, 6 days",7.1 cm
same,Weight of root,"0.001 mg/l, 1 °C, 6 days",3.1 g
same,Area of leaf,"0.001 mg/l, 1 °C, 9 days",12.6 cm^2
same,Height,"0.001 mg/l, 1 °C, 9 days",7.3 cm
same,Weight of root,"0.001 mg/l, 1 °C, 9 days",3.4 g
same,Area of leaf,"0.001 mg/l, 1 °C, 12 days",13 cm^2
same,Height,"0.001 mg/l, 1 °C, 12 days",7.3 cm
same,Number of leaf,"0.001 mg/l, 1 °C, 12 days",3
same,Number of tiller,"0.001 mg/l, 1 °C, 12 days",3
same,Weight of root,"0.001 mg/l, 1 °C, 12 days",3.9 g
same,Area of leaf,"0.001 mg/l, 2 °C, 3 days",10.3 cm^2
same,Height,"0.001 mg/l, 2 °C, 3 days",6.9 cm
same,Weight of root,"0.001 mg/l, 2 °C, 3 days",2.8 g
same,Area of leaf,"0.001 mg/l, 2 °C, 6 days",11.8 cm^2
same,Height,"0.001 mg/l, 2 °C, 6 days",7.1 cm
same,Weight of root,"0.001 mg/l, 2 °C, 6 days",3.0 g
same,Area of leaf,"0.001 mg/l, 2 °C, 9 days",12.7 cm^2
same,Height,"0.001 mg/l, 2 °C, 9 days",7.2 cm
same,Weight of root,"0.001 mg/l, 2 °C, 9 days",3.2 g
same,Area of leaf,"0.001 mg/l, 2 °C, 12 days",13.1 cm^2
same,Height,"0.001 mg/l, 2 °C, 12 days",7.3 cm
same,Number of leaf,"0.001 mg/l, 2 °C, 12 days",3
same,Number of tiller,"0.001 mg/l, 2 °C, 12 days",3
same,Weight of root,"0.001 mg/l, 2 °C, 12 days",3.9 g
same,Area of leaf,"0.001 mg/l, 3 °C, 3 days",10.4 cm^2
same,Height,"0.001 mg/l, 3 °C, 3 days",7 cm
same,Weight of root,"0.001 mg/l, 3 °C, 3 days",2.5 g
same,Area of leaf,"0.001 mg/l, 3 °C, 6 days",12 cm^2
same,Height,"0.001 mg/l, 3 °C, 6 days",7.1 cm
same,Weight of root,"0.001 mg/l, 3 °C, 6 days",2.6 g
same,Area of leaf,"0.001 mg/l, 3 °C, 9 days",12.6 cm^2
same,Height,"0.001 mg/l, 3 °C, 9 days",7.4 cm
same,Weight of root,"0.001 mg/l, 3 °C, 9 days",2.9 g
same,Area of leaf,"0.001 mg/l, 3 °C, 12 days",13.2 cm^2
same,Height,"0.001 mg/l, 3 °C, 12 days",7.4 cm
same,Number of leaf,"0.001 mg/l, 3 °C, 12 days",3
same,Number of tiller,"0.001 mg/l, 3 °C, 12 days",2
same,Weight of root,"0.001 mg/l, 3 °C, 12 days",2.9 g
same,Area of leaf,"0.001 mg/l, 4 °C, 3 days",10.6 cm^2
same,Height,"0.001 mg/l, 4 °C, 3 days",7.1 cm
same,Weight of root,"0.001 mg/l, 4 °C, 3 days",2.5 g
same,Area of leaf,"0.001 mg/l, 4 °C, 6 days",12.4 cm^2
same,Height,"0.001 mg/l, 4 °C, 6 days",7.3 cm
same,Weight of root,"0.001 mg/l, 4 °C, 6 days",2.6 g
same,Area of leaf,"0.001 mg/l, 4 °C, 9 days",13.1 cm^2
same,Height,"0.001 mg/l, 4 °C, 9 days",7.5 cm
same,Weight of root,"0.001 mg/l, 4 °C, 9 days",2.9 g
same,Area of leaf,"0.001 mg/l, 4 °C, 12 days",13.5 cm^2
same,Height,"0.001 mg/l, 4 °C, 12 days",7.7 cm
same,Number of leaf,"0.001 mg/l, 4 °C, 12 days",3
same,Number of tiller,"0.001 mg/l, 4 °C, 12 days",2
same,Weight of root,"0.001 mg/l, 4 °C, 12 days",2.9 g
same,Area of leaf,"0.001 mg/l, 5 °C, 3 days",10.7 cm^2
same,Height,"0.001 mg/l, 5 °C, 3 days",7.5 cm
same,Weight of root,"0.001 mg/l, 5 °C, 3 days",2.8 g
same,Area of leaf,"0.001 mg/l, 5 °C, 6 days",14.6 cm^2
same,Height,"0.001 mg/l, 5 °C, 6 days",7.8 cm
same,Weight of root,"0.001 mg/l, 5 °C, 6 days",2.7 g
same,Area of leaf,"0.001 mg/l, 5 °C, 9 days",16 cm^2
same,Height,"0.001 mg/l, 5 °C, 9 days",7.9 cm
same,Weight of root,"0.001 mg/l, 5 °C, 9 days",3.0 g
same,Area of leaf,"0.001 mg/l, 5 °C, 12 days",17 cm^2
same,Height,"0.001 mg/l, 5 °C, 12 days",8.2 cm
same,Number of leaf,"0.001 mg/l, 5 °C, 12 days",3
same,Number of tiller,"0.001 mg/l, 5 °C, 12 days",3
same,Weight of root,"0.001 mg/l, 5 °C, 12 days",3.7 g
same,Area of leaf,"0.01 mg/l, 1 °C, 3 days",10 cm^2
same,Height,"0.01 mg/l, 1 °C, 3 days",7.0 cm
same,Weight of root,"0.01 mg/l, 1 °C, 3 days",2.8 g
same,Area of leaf,"0.01 mg/l, 1 °C, 6 days",11.9 cm^2
same,Height,"0.01 mg/l, 1 °C, 6 days",7.2 cm
same,Weight of root,"0.01 mg/l, 1 °C, 6 days",3.0 g
same,Area of leaf,"0.01 mg/l, 1 °C, 9 days",12.9 cm^2
same,Height,"0.01 mg/l, 1 °C, 9 days",7.3 cm
same,Weight of root,"0.01 mg/l, 1 °C, 9 days",3.4 g
same,Area of leaf,"0.01 mg/l, 1 °C, 12 days",13.6 cm^2
same,Height,"0.01 mg/l, 1 °C, 12 days",7.4 cm
same,Number of leaf,"0.01 mg/l, 1 °C, 12 days",3
same,Number of tiller,"0.01 mg/l, 1 °C, 12 days",3
same,Weight of root,"0.01 mg/l, 1 °C, 12 days",3.9 g
same,Area of leaf,"0.01 mg/l, 2 °C, 3 days",10.6 cm^2
same,Height,"0.01 mg/l, 2 °C, 3 days",7.0 cm
same,Weight of root,"0.01 mg/l, 2 °C, 3 days",2.8 g
same,Area of leaf,"0.01 mg/l, 2 °C, 6 days",11.8 cm^2
same,Height,"0.01 mg/l, 2 °C, 6 days",7.2 cm
same,Weight of root,"0.01 mg/l, 2 °C, 6 days",3.0 g
same,Area of leaf,"0.01 mg/l, 2 °C, 9 days",12.8 cm^2
same,Height,"0.01 mg/l, 2 °C, 9 days",7.3 cm
same,Weight of root,"0.01 mg/l, 2 °C, 9 days",3.1 g
same,Area of leaf,"0.01 mg/l, 2 °C, 12 days",13.4 cm^2
same,Height,"0.01 mg/l, 2 °C, 12 days",7.5 cm
same,Number of leaf,"0.01 mg/l, 2 °C, 12 days",3
same,Number of tiller,"0.01 mg/l, 2 °C, 12 days",3
same,Weight of root,"0.01 mg/l, 2 °C, 12 days",3.2 g
same,Area of leaf,"0.01 mg/l, 3 °C, 3 days",10.4 cm^2
same,Height,"0.01 mg/l, 3 °C, 3 days",7 cm
same,Weight of root,"0.01 mg/l, 3 °C, 3 days",2.5 g
same,Area of leaf,"0.01 mg/l, 3 °C, 6 days",12 cm^2
same,Height,"0.01 mg/l, 3 °C, 6 days",7.2 cm
same,Weight of root,"0.01 mg/l, 3 °C, 6 days",2.6 g
same,Area of leaf,"0.01 mg/l, 3 °C, 9 days",12.6 cm^2
